Laboratory results from patent publication US20210278391A1, “COMPOSITIONS AND METHODS FOR TREATING CARDIOVASCULAR AND METABOLIC CONDITIONS” (The Regents of the University of California, priority 2017, published 2021).

Conditions: male, C57BL/6, mouse, in vivo, ip
Protocol: Ob/ob mice or wildtype C57BL/6 male mice were purchased from Jackson Labs or SLAC Laboratory Animals Company Limited, Shanghai, China. PP2Cm germ-line knockout mice were generated as previously described (Lu et al. (2009) J Clin Invest 119:1678-1687). All animals were housed at 22° C. with a 12-hour light, 12-hour dark cycle with free access to water and standard chow. BCAA in water was prepared by BCAA powders. Isocaloric high protein diet (TD90018) and low protein diet (TD90016) were purchased from Envigo Teklad Diet. For glucose or insulin tolerance test, mice were fasted for 6 hours and injected (intraperitoneally) with insulin or D-glucose. […] For BCAA tolerance test, ob/ob mice at age of 10 weeks or high fat diet induced obese (DIO) mice were used. To induce DIO, high fat diet (60% kcal % fat) or control diet (10% kcal % fat) (Research Diets, New Brunswick, N.J.) was used to feed mice starting at 6 weeks of age and continued for 8 weeks. […] Plasma samples were collected at 0, 30, 60, 120 minute points to measure BCAA/BCKA levels. […]
Blood samples were collected at 0, 30, 60, 120 minute points as indicated. Plasma was then collected and BCAA/BCKA was measured.

time point of recovery to near the basal level: 1 h
SMILES: CC(C)C[C@H](N)C(=O)O [leucine]
